Source: PubChem BioAssay (NCI)
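Protocol summary: plate cells (96-well), add compound at 5 concentrations, incubate 48 h, interpolate endpoints linearly. GI50 is the concentration that inhibits growth by half. TGI: concentration producing complete growth inhibition.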

Experiments:
Assay in all cases: DTP human tumour cell line panel, 48 h
[1] = test system: A549 NSCLC
[2] = test system: UO-31 renal
[3] = test system: NCI-H226 lung
[4] = test system: HCC-2998 colon
[5] = test system: MDA-MB-435
[6] = test system: KM12 colon
[7] = test system: MOLT-4 leukemia
[8] = test system: RXF 393 renal
[9] = test system: NCI-H460 lung
[10] = test system: OVCAR-8 ovarian
[11] = test system: U251 CNS
[12] = test system: NCI/ADR-RES ovarian
[13] = test system: PC-3 prostate
[14] = test system: TK-10 renal
[15] = test system: CCRF-CEM leukemia
[16] = test system: HOP-92 NSCLC
[17] = test system: SW-620 colon
[18] = test system: HCT-15 colon
[19] = test system: SR leukemia
[20] = test system: CAKI-1 renal
[21] = test system: SK-MEL-2 melanoma
[22] = test system: ACHN renal
[23] = test system: DU-145 prostate
[24] = test system: NCI-H23 lung
[25] = test system: SN12C renal
[26] = test system: OVCAR-3 ovarian
[27] = test system: MDA-MB-231 breast
[28] = test system: SK-MEL-5 melanoma
[29] = test system: MCF7 breast
[30] = test system: SNB-19 CNS
[31] = test system: OVCAR-5 ovarian
[32] = test system: SF-268 CNS
[33] = test system: OVCAR-4 ovarian
[34] = test system: LOX IMVI melanoma
[35] = test system: HCT-116 colon
[36] = test system: MALME-3M melanoma
[37] = test system: A498 renal
[38] = test system: COLO 205 colon
[39] = test system: SF-539 CNS
[40] = test system: RPMI-8226 leukemia
[41] = test system: SK-OV-3 ovarian
[42] = test system: M14 melanoma
[43] = test system: UACC-257 melanoma
[44] = test system: 786-0 renal
[45] = test system: UACC-62 melanoma
[46] = test system: T-47D breast
[47] = test system: SNB-75 CNS
[48] = test system: HT29 colon
[49] = test system: EKVX NSCLC
[50] = test system: HL-60(TB) leukemia
[51] = test system: HOP-62 NSCLC
[52] = test system: HS 578T breast
[53] = test system: SK-MEL-28 melanoma
[54] = test system: K-562 leukemia
[55] = test system: SF-295 CNS

C(=C\c1ccc(-c2cn3cc(/C=C/C=N/NC4=NCCN4)ccc3n2)cc1)/C=N/NC1=NCCN1 was tested, and the TGI [1] was 1.98 µM, the TGI [2] was 19.8 µM and the TGI [3] was 3.27 µM. It also gave a TGI [4] of 2.6 µM, a TGI [5] of 3.54 µM and a TGI [6] of 4.89 µM. For the same compound, the TGI [7] was 5.22 µM, the TGI [8] was 4.79 µM and the TGI [9] was 1.92 µM. The TGI [10] was 2.67 µM, the TGI [11] was 2.26 µM and the TGI [12] was > 44.9 µM. The TGI [13] was 3.97 µM, the TGI [14] was 65.4 µM and the TGI [15] was 4.18 µM. The TGI [16] was 2.51 µM, the TGI [17] was 0.77 µM and the TGI [18] was > 100 µM. It also gave a TGI [19] of 3.54 µM, a TGI [20] of 5.61 µM and a TGI [21] of 4.51 µM. The TGI [22] was 3.01 µM and the TGI [23] was 5.44 µM.
In the case of CCOC(=O)/C=C/c1ccc(C#Cc2ccccc2)cc1, the GI50 [1] is reported as 72.2 µM, the TGI [1] is reported as > 100 µM and the GI50 [2] is reported as 38.4 µM. For the same compound, the TGI [2] was > 100 µM, the GI50 [24] was 95 µM and the TGI [24] was > 100 µM. For the same compound, the GI50 [3] was > 100 µM, the TGI [3] was > 100 µM and the GI50 [25] was > 100 µM. For the same compound, the TGI [25] was > 100 µM, the GI50 [4] was > 100 µM and the TGI [4] was > 100 µM. The GI50 [26] was > 100 µM, the TGI [26] was > 100 µM and the GI50 [27] was > 100 µM. For the same compound, the TGI [27] was > 100 µM, the GI50 [28] was 68.5 µM and the TGI [28] was > 100 µM. The GI50 [5] was > 100 µM, the TGI [5] was > 100 µM and the GI50 [29] was > 100 µM. For the same compound, the TGI [29] was > 100 µM, the GI50 [30] was > 100 µM and the TGI [30] was > 100 µM. For the same compound, the GI50 [31] was > 100 µM, the TGI [31] was > 100 µM and the GI50 [6] was > 100 µM. For the same compound, the TGI [6] was > 100 µM, the GI50 [7] was > 100 µM and the TGI [7] was > 100 µM. For the same compound, the GI50 [8] was 49.2 µM, the TGI [8] was > 100 µM and the GI50 [32] was > 100 µM. The TGI [32] was > 100 µM, the GI50 [9] was 66.1 µM and the TGI [9] was > 100 µM. For the same compound, the GI50 [33] was 68.4 µM, the TGI [33] was > 100 µM and the GI50 [34] was > 100 µM. The TGI [34] was > 100 µM, the GI50 [35] was > 100 µM and the TGI [35] was > 100 µM. The GI50 [10] was > 100 µM, the TGI [10] was > 100 µM and the GI50 [11] was > 100 µM. The TGI [11] was > 100 µM, the GI50 [12] was > 100 µM and the TGI [12] was > 100 µM. For the same compound, the GI50 [13] was > 100 µM, the TGI [13] was > 100 µM and the GI50 [36] was 98.3 µM. The TGI [36] was > 100 µM, the GI50 [14] was > 100 µM and the TGI [14] was > 100 µM. The GI50 [37] was 44.9 µM, the TGI [37] was > 100 µM and the GI50 [38] was > 100 µM. For the same compound, the TGI [38] was > 100 µM, the GI50 [39] was 1.54 µM and the TGI [39] was > 100 µM. The GI50 [40] was 54.5 µM, the TGI [40] was > 100 µM and the GI50 [41] was > 100 µM. For the same compound, the TGI [41] was > 100 µM, the GI50 [42] was > 100 µM and the TGI [42] was > 100 µM. For the same compound, the GI50 [15] was > 100 µM, the TGI [15] was > 100 µM and the GI50 [43] was > 100 µM. The TGI [43] was > 100 µM, the GI50 [44] was > 100 µM and the TGI [44] was > 100 µM. The GI50 [16] was > 100 µM, the TGI [16] was > 100 µM and the GI50 [45] was 83.5 µM. The TGI [45] was > 100 µM, the GI50 [46] was 86.8 µM and the TGI [46] was > 100 µM. For the same compound, the GI50 [17] was > 100 µM, the TGI [17] was > 100 µM and the GI50 [47] was 31.8 µM. For the same compound, the TGI [47] was 97.1 µM, the GI50 [48] was > 100 µM and the TGI [48] was > 100 µM. The GI50 [49] was 0.0608 µM, the TGI [49] was 43.1 µM and the GI50 [50] was > 100 µM. The TGI [50] was > 100 µM, the GI50 [18] was > 100 µM and the TGI [18] was > 100 µM. The GI50 [51] was > 100 µM, the TGI [51] was > 100 µM and the GI50 [19] was 10.3 µM. The TGI [19] was > 100 µM, the GI50 [52] was > 100 µM and the TGI [52] was > 100 µM. For the same compound, the GI50 [53] was > 100 µM, the TGI [53] was > 100 µM and the GI50 [20] was > 100 µM. The TGI [20] was > 100 µM, the GI50 [21] was > 100 µM and the TGI [21] was > 100 µM. For the same compound, the GI50 [22] was > 100 µM, the TGI [22] was > 100 µM and the GI50 [54] was 72 µM. The TGI [54] was > 100 µM, the GI50 [55] was 55.1 µM and the TGI [55] was > 100 µM.
